Experimental data from patent US4386076A, “(E)-5-(2-Halogenovinyl)-arabinofuranosyluracil, process for preparation thereof, and uses thereof” (Yamasa Shoyu Kabushiki Kaisha, priority 1979, dated 1983).
In brackets after ≈: the same amount, converted by molar mass. Read-outs that look alike come from different tables or passages of the source.

Tests used:
[1] = tested on: HSV-1; experiment: Anti-HSV-1 activity (Pharmacological Test 3); assay type: cell-based, herpes simplex virus type 1; conditions: for anti-HSV-1 activity compared with 5-vinyl-araU: Test 3, relative to 5-vinyl-araU
Procedure: (§1) In accordance with the Sidwell et al. method (cf. Applied Microbiology, Vol. 22, No. 5, P. 797, 1971), the anti-virus activities of 5-bromovinyl- and 5-chlorovinyl-araU on human embryonic lung fibroblasts (HEL-F) were determined by using as controls 5-iodo-2'-deoxyuridine (IDU) and arabinofuranosyladenine (araA).
(§2) In conformance with Pharmacological Tests 1 and 2, the anti-virus activities and cell proliferations of 5-bromovinyl-araU and 5-chlorovinyl-araU were compared with those of 5-vinyl-araU and 5-bromovinyl-2'-deoxyuridine (5-bromovinyl-dUrd).

[2] = tested on: HSV-2; experiment: Anti-HSV-2 activity (Pharmacological Test 3); assay type: cell-based, type-2 herpes (HSV-2); conditions: for anti-HSV-2 activity compared with 5-vinyl-araU: relative to 5-vinyl-araU
Procedure: as §1, §2

[3] = tested on: VZV; experiment: Anti-VZV activity (Pharmacological Test 3); assay type: cell-based, varicella-zoster virus; conditions: for MIC: Human alphaherpesvirus 3
Procedure: as §1, §2

[4] = Anti-HEL-F, cell proliferation (Pharmacological Test 3); assay type: cell-based, human; conditions: human, hel-f cells
Procedure: (§3) The effects of 5-bromovinyl araU and 5-chlorovinyl-araU on proliferation of HEL-F were compared with those of IDU and araA in accordance with the Machida et al. method (cf. Antimicrobial Agents and Chemotherapy, Vol. 16, No. 2, p. 158, 1979).
(§4) In the growth medium of HEL-F under proliferation (culture medium: Eagle's minimal essential medium supplemented with 10% fetal bovine serum) was added a test compound diluted in serial two-fold dilution and then incubated for 4 days. The numbers of increased cells with various concentrations of the compound tested were compared with those of the control groups wherein no compound was added.
as §2

[5] = tested on: HSV-1, VR-3; experiment: Anti-virus activity on HEL-F, HSV-1 VR-3 (Pharmacological Test 1, Sidwell et al. method); assay type: cell-based, herpes simplex virus type 1 VR3 strain
Procedure: as §1
(§5) *MIC = minimal inhibitory concentration for cytopathogenic effect caused
^(1) HSV1, VR3 = herpes simplex virus type 1 VR3 strain

[6] = tested on: HSV, isolate-1; experiment: Anti-virus activity on HEL-F, HSV isolate-1 (Pharmacological Test 1, Sidwell et al. method); assay type: cell-based, herpes simplex virus clinical isolated strain 1; conditions: for MIC: read-out: MIC (minimal inhibitory concentration for cytopathogenic effect caused by the infection)
Procedure: as §1, §5
^(2) HSV, isolate1 = herpes simplex virus clinical isolated strain 1

[7] = tested on: VZV; experiment: Anti-virus activity on HEL-F, VZV (Pharmacological Test 1, Sidwell et al. method); assay type: cell-based, varicella-zoster virus; conditions: for MIC: Human alphaherpesvirus 3, read-out: MIC (minimal inhibitory concentration for cytopathogenic effect caused by the infection)
Procedure: as §1, §5
^(3) VZV = varicellazoster virus

[8] = Effect on proliferation of HEL-F (Pharmacological Test 2, Machida et al. method); assay type: cell-based, human; conditions: human, hel-f cells
Procedure: as §3, §4

[9] = tested on: HEL-F; experiment: as above; assay type: cell-based, human; conditions: Test 2, relative to IDU and araA
Procedure: as §3, §4

[10] = tested on: HEL-F; experiment: Anti-HEL-F, cell proliferation (Pharmacological Test 3); assay type: cell-based, human; conditions: for HEL-F proliferation inhibitory effect compared with 5-bromovinyl-dUrd: Test 3, relative to 5-bromovinyl-dUrd; for cell proliferation inhibiting activity relative to 5-vinyl-araU: Test 3, relative to 5-vinyl-araU
Procedure: as §3, §4, §2

[11] = tested on: herpes virus; experiment: Anti-virus activity, overall statement; assay type: cell-based; conditions: for anti-virus activity compared with IDU and araA: Test 1, relative to IDU and araA; for anti-virus activity compared with 5-bromovinyl-dUrd: Test 3, relative to 5-bromovinyl-dUrd
Procedure: as §1, §2

[12] = Human alphaherpesvirus 1, Test 3, read-out: Anti-HSV-1 MIC
[13] = Human alphaherpesvirus 2, Test 3, read-out: Anti-HSV-2 MIC
[14] = Human alphaherpesvirus 1, HSV-1 VR-3, HEL-F, Test 1, read-out: MIC (minimal inhibitory concentration for cytopathogenic effect caused by the infection)
[15] = HEL-F under proliferation, incubated for 4 days, Test 2, read-out: ID50 (50% inhibition of proliferation)

C=Cc1cn([C@@H]2O[C@H](CO)[C@@H](O)[C@@H]2O)c(=O)[nH]c1=O [5-vinyl-araU, 5-vinylarabinofuranosyluracil, reference compound]
MIC [1, 12]: 0.1 µg/mL (≈ 0.37 µM)
Anti-HSV-1 VR ([1]; Test 3): 3.3
MIC [2, 13]: 1 µg/mL (≈ 3.7 µM)
Anti-HSV-2 VR ([2]; Test 3): 2.7
Anti-VZV VR [3]: 2.9
MIC [3]: 0.32 µg/mL (≈ 1.18 µM)
CC50 at 96 h [4]: 650 µg/mL (≈ 2410 µM)

O=c1[nH]c(=O)n([C@@H]2O[C@H](CO)[C@@H](O)[C@@H]2O)cc1/C=C/Br [5-bromovinyl-araU, (E)-5-(2-bromovinyl)-1-β-D-arabinofuranosyluracil]
VR (virus rating) ([5]; HSV-1 VR-3, HEL-F, Test 1): 3.8
MIC [5, 14]: 0.032 µg/mL (≈ 0.0917 µM)
VR (virus rating) ([6]; HSV isolate-1, HEL-F, Test 1): 3.8
MIC ([6]; HSV isolate-1, HEL-F, Test 1): 0.032 µg/mL (≈ 0.0917 µM)
VR (virus rating) [7]: 3.5
MIC [7]: 0.1 µg/mL (≈ 0.286 µM)
CC50 at 96 h [8, 15]: > 1000 µg/mL
inhibition of cell proliferation compared with IDU and araA [9]: markedly weak inhibition of cell proliferation
MIC [1, 12]: 0.032 µg/mL (≈ 0.0917 µM)
Anti-HSV-1 VR ([1]; Test 3): 3.7
anti-HSV-1 activity compared with 5-vinyl-araU [1]: significantly greater anti-HSV-1 activity
anti-HSV-2 activity compared with anti-HSV-1 activity ([2]; HSV-2 versus HSV-1): lower than that on type-1 herpes (HSV-1)
MIC [2, 13]: 100 µg/mL (≈ 286 µM)
Anti-HSV-2 VR ([2]; Test 3): 0.9
anti-HSV-2 activity compared with 5-vinyl-araU [2]: inferior to 5-vinyl-araU
Anti-VZV VR [3]: 3.5
MIC [3]: 0.1 µg/mL (≈ 0.286 µM)
CC50 at 96 h [4]: > 1000 µg/mL
HEL-F proliferation inhibitory effect compared with 5-bromovinyl-dUrd [10]: less than that of 5-bromovinyl-dUrd
cell proliferation inhibiting activity relative to 5-vinyl-araU [10]: one half relative to 5-vinyl-araU
anti-virus activity compared with IDU and araA [11]: stronger anti-virus activities
anti-virus activity compared with 5-bromovinyl-dUrd [11]: potencies similar to that of 5-bromovinyl-dUrd

O=c1[nH]c(=O)n([C@@H]2O[C@H](CO)[C@@H](O)[C@@H]2O)cc1/C=C/Cl [5-chlorovinyl-araU, (E)-5-(2-chlorovinyl)-1-β-D-arabinofuranosyluracil]
VR (virus rating) ([5]; HSV-1 VR-3, HEL-F, Test 1): 3.3
MIC [5, 14]: 0.1 µg/mL (≈ 0.328 µM)
VR (virus rating) ([6]; HSV isolate-1, HEL-F, Test 1): 3.1
MIC ([6]; HSV isolate-1, HEL-F, Test 1): 0.1 µg/mL (≈ 0.328 µM)
VR (virus rating) [7]: 3.4
MIC [7]: 0.1 µg/mL (≈ 0.328 µM)
CC50 at 96 h [8, 15]: > 500 µg/mL
inhibition of cell proliferation compared with IDU and araA [9]: markedly weak inhibition of cell proliferation
MIC [1, 12]: 0.1 µg/mL (≈ 0.328 µM)
Anti-HSV-1 VR ([1]; Test 3): 3.5
anti-HSV-1 activity compared with 5-vinyl-araU [1]: significantly greater anti-HSV-1 activity
MIC [2, 13]: > 1000 µg/mL
Anti-HSV-2 VR ([2]; Test 3): 0.2
Anti-VZV VR [3]: 3.4
MIC [3]: 0.1 µg/mL (≈ 0.328 µM)
CC50 at 96 h [4]: 1000 µg/mL (≈ 3280 µM)
HEL-F proliferation inhibitory effect compared with 5-bromovinyl-dUrd [10]: less than that of 5-bromovinyl-dUrd
cell proliferation inhibiting activity relative to 5-vinyl-araU [10]: one half relative to 5-vinyl-araU
anti-virus activity compared with IDU and araA [11]: stronger anti-virus activities
anti-virus activity compared with 5-bromovinyl-dUrd [11]: potencies similar to that of 5-bromovinyl-dUrd

O=c1[nH]c(=O)n([C@H]2C[C@H](O)[C@@H](CO)O2)cc1I [IDU, 5-iodo-2'-deoxyuridine, reference compound]
VR (virus rating) ([5]; HSV-1 VR-3, HEL-F, Test 1): 2.4
MIC [5, 14]: 3.2 µg/mL (≈ 9.04 µM)
VR (virus rating) ([6]; HSV isolate-1, HEL-F, Test 1): 2.1
MIC ([6]; HSV isolate-1, HEL-F, Test 1): 3.2 µg/mL (≈ 9.04 µM)
VR (virus rating) [7]: 2.3
MIC [7]: 3.2 µg/mL (≈ 9.04 µM)
CC50 at 96 h [8, 15]: 6 µg/mL (≈ 16.9 µM)

O=c1[nH]c(=O)n([C@H]2C[C@H](O)[C@@H](CO)O2)cc1/C=C/Br [5-bromovinyl-dUrd, 5-bromovinyl-2'-deoxyuridine, reference compound]
MIC ([1]; Human alphaherpesvirus 1, read-out: Anti-HSV-1 MIC): 0.032 µg/mL (≈ 0.0961 µM)
Anti-HSV-1 VR ([1]; Test 3): 3.7
MIC ([2]; Human alphaherpesvirus 2, read-out: Anti-HSV-2 MIC): 100 µg/mL (≈ 300 µM)
Anti-HSV-2 VR ([2]; Test 3): 0.7
anti-HSV-2 activity compared with 5-vinyl-araU [2]: inferior to 5-vinyl-araU

Nc1ncnc2c1ncn2[C@@H]1O[C@H](CO)[C@@H](O)[C@@H]1O [araA, arabinofuranosyladenine, reference compound]
VR (virus rating) ([5]; HSV-1 VR-3, HEL-F, Test 1): 1.9
MIC ([5]; Human alphaherpesvirus 1, read-out: MIC (minimal inhibitory concentration for cytopathogenic effect caused by the infection)): 10 µg/mL (≈ 37.4 µM)
VR (virus rating) ([6]; HSV isolate-1, HEL-F, Test 1): 1.9
MIC [6]: 10 µg/mL (≈ 37.4 µM)
CC50 at 96 h [8]: 4 µg/mL (≈ 15 µM)
